Measured values taken from the NIST ThermoML archive (doi:10.1016/j.fluid.2014.04.018).
Several values for one entry are separate records, joined by “and”; a condition that tells them apart may be missing. Equal values may be shown once. Numbers after ± are expanded uncertainties.

Conditions: Liquid, Vibrating tube method

Compound: CCCCC(CC)COC(=O)CCCCC(=O)OCC(CC)CCCC (stereo not given) [bis(2-ethylhexyl) adipate]
- mass density (293.15 K, 100 kPa): 925.4 ± 3.7 kg/m3
- mass density (293.15 K, 2510 kPa): 926.9 ± 3.7 kg/m3
- mass density (293.15 K, 5000 kPa): 928.4 ± 3.7 kg/m3 and 928.3 ± 3.7 kg/m3
- mass density (293.15 K, 5010 kPa): 928.4 ± 3.7 kg/m3
- mass density (293.15 K, 7550 kPa): 929.9 ± 3.7 kg/m3
- mass density (293.15 K, 10010 kPa): 931.3 ± 3.7 kg/m3
- mass density (293.15 K, 10020 kPa): 931.3 ± 3.7 kg/m3
- mass density (293.15 K, 15040 kPa): 934.2 ± 3.7 kg/m3
- mass density (293.15 K, 20020 kPa): 937 ± 3.8 kg/m3
- mass density (293.15 K, 30030 kPa): 942.4 ± 3.8 kg/m3
- mass density (293.15 K, 40010 kPa): 947.4 ± 3.8 kg/m3
- mass density (293.15 K, 40020 kPa): 947.4 ± 3.8 kg/m3
- mass density (293.15 K, 50020 kPa): 952.3 ± 3.8 kg/m3
- mass density (293.15 K, 68030 kPa): 960.4 ± 3.9 kg/m3 and 960.3 ± 3.9 kg/m3
- mass density (313.15 K, 100 kPa): 910.3 ± 3.6 kg/m3
- mass density (313.15 K, 2530 kPa): 911.9 ± 3.7 kg/m3
- mass density (313.15 K, 2540 kPa): 911.9 ± 3.7 kg/m3
- mass density (313.15 K, 5020 kPa): 913.5 ± 3.7 kg/m3
- mass density (313.15 K, 7540 kPa): 915.2 ± 3.7 kg/m3
- mass density (313.15 K, 10010 kPa): 916.7 ± 3.7 kg/m3
- mass density (313.15 K, 15010 kPa): 919.8 ± 3.7 kg/m3
- mass density (313.15 K, 20000 kPa): 922.8 ± 3.7 kg/m3
- mass density (313.15 K, 30030 kPa): 928.7 ± 3.7 kg/m3
- mass density (313.15 K, 40020 kPa): 934.1 ± 3.7 kg/m3
- mass density (313.15 K, 50010 kPa): 939.3 ± 3.8 kg/m3
- mass density (313.15 K, 68050 kPa): 947.9 ± 3.8 kg/m3
- mass density (333.15 K, 100 kPa): 895.3 ± 3.6 kg/m3
- mass density (333.15 K, 2500 kPa): 897.1 ± 3.6 kg/m3
- mass density (333.15 K, 5000 kPa): 898.8 ± 3.6 kg/m3
- mass density (333.15 K, 7480 kPa): 900.6 ± 3.6 kg/m3
- mass density (333.15 K, 9990 kPa): 902.3 ± 3.6 kg/m3
- mass density (333.15 K, 14990 kPa): 905.7 ± 3.6 kg/m3
- mass density (333.15 K, 19970 kPa): 908.9 ± 3.6 kg/m3
- mass density (333.15 K, 30010 kPa): 915.2 ± 3.7 kg/m3
- mass density (333.15 K, 39990 kPa): 921 ± 3.7 kg/m3
- mass density (333.15 K, 50020 kPa): 926.6 ± 3.7 kg/m3
- mass density (333.15 K, 68010 kPa): 935.8 ± 3.8 kg/m3
- mass density (353.15 K, 100 kPa): 880.4 ± 3.5 kg/m3
- mass density (353.15 K, 2500 kPa): 882.3 ± 3.5 kg/m3
- mass density (353.15 K, 2510 kPa): 882.3 ± 3.5 kg/m3
- mass density (353.15 K, 5000 kPa): 884.2 ± 3.5 kg/m3
- mass density (353.15 K, 7510 kPa): 886.1 ± 3.6 kg/m3
- mass density (353.15 K, 10000 kPa): 888 ± 3.6 kg/m3
- mass density (353.15 K, 15010 kPa): 891.7 ± 3.6 kg/m3
- mass density (353.15 K, 20020 kPa): 895.2 ± 3.6 kg/m3
- mass density (353.15 K, 30030 kPa): 902 ± 3.6 kg/m3
- mass density (353.15 K, 40020 kPa): 908.2 ± 3.6 kg/m3
- mass density (353.15 K, 50010 kPa): 914.1 ± 3.7 kg/m3
- mass density (353.15 K, 68010 kPa): 923.9 ± 3.7 kg/m3
- mass density (373.15 K, 100 kPa): 865.4 ± 3.5 kg/m3
- mass density (373.15 K, 2510 kPa): 867.5 ± 3.5 kg/m3
- mass density (373.15 K, 5020 kPa): 869.7 ± 3.5 kg/m3
- mass density (373.15 K, 7510 kPa): 871.7 ± 3.5 kg/m3
- mass density (373.15 K, 10010 kPa): 873.8 ± 3.5 kg/m3
- mass density (373.15 K, 14990 kPa): 877.8 ± 3.5 kg/m3
- mass density (373.15 K, 20000 kPa): 881.6 ± 3.5 kg/m3
- mass density (373.15 K, 30010 kPa): 888.9 ± 3.6 kg/m3
- mass density (373.15 K, 40000 kPa): 895.6 ± 3.6 kg/m3
- mass density (373.15 K, 50010 kPa): 901.9 ± 3.6 kg/m3
- mass density (373.15 K, 68000 kPa): 912.3 ± 3.7 kg/m3

Compound: CCCCOC(=O)CCCCC(=O)OCCCC [dibutyl hexanedioate]
- mass density (293.15 K, 100 kPa): 960.6 ± 3.8 kg/m3
- mass density (293.15 K, 2510 kPa): 962.2 ± 3.9 kg/m3
- mass density (293.15 K, 4990 kPa): 963.7 ± 3.9 kg/m3
- mass density (293.15 K, 5000 kPa): 963.7 ± 3.9 kg/m3
- mass density (293.15 K, 7510 kPa): 965.3 ± 3.9 kg/m3
- mass density (293.15 K, 9990 kPa): 966.9 ± 3.9 kg/m3
- mass density (293.15 K, 10000 kPa): 966.9 ± 3.9 kg/m3
- mass density (293.15 K, 15010 kPa): 969.9 ± 3.9 kg/m3
- mass density (293.15 K, 20000 kPa): 972.9 ± 3.9 kg/m3
- mass density (293.15 K, 29990 kPa): 978.6 ± 3.9 kg/m3
- mass density (293.15 K, 39800 kPa): 983.9 ± 3.9 kg/m3
- mass density (293.15 K, 39860 kPa): 983.8 ± 3.9 kg/m3
- mass density (293.15 K, 50020 kPa): 989.1 ± 4 kg/m3
- mass density (293.15 K, 68080 kPa): 997.3 ± 4 kg/m3
- mass density (293.15 K, 68090 kPa): 997.7 ± 4 kg/m3
- mass density (313.15 K, 100 kPa): 943.7 ± 3.8 kg/m3
- mass density (313.15 K, 2500 kPa): 945.4 ± 3.8 kg/m3
- mass density (313.15 K, 5020 kPa): 947.2 ± 3.8 kg/m3
- mass density (313.15 K, 7510 kPa): 948.9 ± 3.8 kg/m3
- mass density (313.15 K, 9990 kPa): 950.5 ± 3.8 kg/m3
- mass density (313.15 K, 15000 kPa): 953.9 ± 3.8 kg/m3
- mass density (313.15 K, 20000 kPa): 957.1 ± 3.8 kg/m3
- mass density (313.15 K, 30010 kPa): 963.3 ± 3.9 kg/m3
- mass density (313.15 K, 39810 kPa): 969 ± 3.9 kg/m3
- mass density (313.15 K, 50000 kPa): 974.6 ± 3.9 kg/m3
- mass density (313.15 K, 67990 kPa): 983.8 ± 3.9 kg/m3
- mass density (333.15 K, 100 kPa): 926.8 ± 3.7 kg/m3
- mass density (333.15 K, 2500 kPa): 928.7 ± 3.7 kg/m3
- mass density (333.15 K, 5010 kPa): 930.6 ± 3.7 kg/m3
- mass density (333.15 K, 7520 kPa): 932.5 ± 3.7 kg/m3
- mass density (333.15 K, 10010 kPa): 934.3 ± 3.7 kg/m3
- mass density (333.15 K, 15040 kPa): 938 ± 3.8 kg/m3
- mass density (333.15 K, 20000 kPa): 941.4 ± 3.8 kg/m3
- mass density (333.15 K, 30030 kPa): 948.2 ± 3.8 kg/m3
- mass density (333.15 K, 39800 kPa): 954.3 ± 3.8 kg/m3
- mass density (333.15 K, 50030 kPa): 960.4 ± 3.9 kg/m3
- mass density (333.15 K, 68030 kPa): 970.2 ± 3.9 kg/m3
- mass density (353.15 K, 100 kPa): 909.9 ± 3.6 kg/m3
- mass density (353.15 K, 2510 kPa): 912 ± 3.7 kg/m3
- mass density (353.15 K, 5000 kPa): 914.1 ± 3.7 kg/m3
- mass density (353.15 K, 7530 kPa): 916.2 ± 3.7 kg/m3
- mass density (353.15 K, 10010 kPa): 918.2 ± 3.7 kg/m3
- mass density (353.15 K, 15000 kPa): 922.2 ± 3.7 kg/m3
- mass density (353.15 K, 20000 kPa): 926 ± 3.7 kg/m3
- mass density (353.15 K, 30010 kPa): 933.3 ± 3.7 kg/m3
- mass density (353.15 K, 39840 kPa): 939.9 ± 3.8 kg/m3
- mass density (353.15 K, 49990 kPa): 946.4 ± 3.8 kg/m3
- mass density (353.15 K, 67990 kPa): 956.9 ± 3.8 kg/m3
- mass density (373.15 K, 100 kPa): 893 ± 3.6 kg/m3
- mass density (373.15 K, 2490 kPa): 895.3 ± 3.6 kg/m3
- mass density (373.15 K, 2500 kPa): 895.3 ± 3.6 kg/m3
- mass density (373.15 K, 5020 kPa): 897.6 ± 3.6 kg/m3
- mass density (373.15 K, 7510 kPa): 899.9 ± 3.6 kg/m3
- mass density (373.15 K, 10010 kPa): 902.1 ± 3.6 kg/m3
- mass density (373.15 K, 15010 kPa): 906.5 ± 3.6 kg/m3
- mass density (373.15 K, 19980 kPa): 910.6 ± 3.7 kg/m3
- mass density (373.15 K, 30010 kPa): 918.5 ± 3.7 kg/m3
- mass density (373.15 K, 39810 kPa): 925.7 ± 3.7 kg/m3
- mass density (373.15 K, 50000 kPa): 932.6 ± 3.7 kg/m3
- mass density (373.15 K, 68010 kPa): 943.8 ± 3.8 kg/m3
